Experimental findings from patent publication US8633219B2, “Combination therapy” (Japan Tobacco Inc., priority 2004, dated 2014) are described below.

One series has as its system HIV-1IIIB. The series can be described thus: Drug combination anti-HIV-1 cytoprotection assay (MacSynergy II) in CEM-SS cells infected with HIV-1IIIB. It counts as cell-based. Particulars: in combination with Compound A; for Antagonism Volume, Result 1 / Synergy Volume, Result 1 / Antagonism Volume, Result 2 / Synergy Volume, Result 2 / Antagonism Volume, Result 3 / Synergy Volume, Result 3: 95% confidence interval; for Antagonism Volume, Result 1 / Synergy Volume, Result 1: assay 1; for Antagonism Volume, Result 2 / Synergy Volume, Result 2: assay 2; for Antagonism Volume, Result 3 / Synergy Volume, Result 3: assay 3; for Mean Antagonism Volume / Mean Synergy Volume: n = 3. As to the method:
This work was performed using the Prichard and Shipman MacSynergy II three-dimensional model for statistical evaluation of combination anti-HIV assays. Using a standard microtiter plate format, each combination assay was performed in CEM-SS T-lymphocytic cells acutely infected with the a laboratory-adapted strain, HIV-1IIIB, and viral growth/inhibition was evaluated by measuring by monitoring virus-induced cytopathic effects (CPE) at the experimental endpoint.
AZT was dissolved in sterile dH2O and the remainder of the control compounds were dissolved in DMSO for analysis in the combination assays. […] CEM-SS cells were passaged in T-75 flasks prior to use in the antiviral assay. On the day preceding the assay, the cells were split 1:2 to assure they were in an exponential growth phase at the time of infection. Total cell and viability quantification was performed using a hemacytometer and trypan blue exclusion.
The virus used for these tests was the lymphocytropic virus strain HIV-1IIIB. This virus was obtained from the NIH AIDS Research and Reference Reagent Program and was grown in CEM-SS cells for the production of stock virus pools. For each assay, a pre-titered aliquot of virus was removed from the freezer (−80° C.) and allowed to thaw slowly to room temperature in a biological safety cabinet. The virus was resuspended and diluted into tissue culture medium such that the amount of virus added to each well in a volume of 50 μl was the amount determined to give between 85 to 95% cell killing at 6 days post-infection.
The format of the test plate was standardized as follows. Each plate contains cell control wells (cells only), virus control wells (cells plus virus), drug cytotoxicity wells (cells plus drug only), drug colorimetric control wells (drug only), as well as experimental wells (drug plus cells plus virus). The final volume in each well was 200 μl.
At assay termination, the assay plates were stained with the soluble tetrazolium-based dye MTS (CellTiter96 Reagent, Promega) to determine cell viability and quantify compound toxicity. […] At termination of the assay, 20 μl of MTS reagent was added per well. The microtiter plates were then incubated 4-6 hrs at 37° C. for the HIV cytoprotection assay; the incubation intervals were chosen based on empirically determined times for optimal dye reduction. Adhesive plate sealers were used in place of the lids, the sealed plate was inverted several times to mix the soluble formazan product and the plate was read spectrophotometrically at 490/650 nm with a Molecular Devices Vmax plate reader.
Combination antiviral assays were performed with CEM-SS cells utilizing the HIV-1IIIB strain of virus as described above.
The expected additive antiviral protection was subtracted from the experimentally determined antiviral activity at each combination concentration resulting in a positive value (synergy), a negative value (antagonism), or zero (additivity). The results of the combination assays are presented three dimensionally at each combination concentration, yielding a surface of activity extending above (synergy) or below (antagonism) the plane of additivity. The volume of the surface is calculated and expressed as a synergy volume (μM^2%) calculated at the 95% confidence interval.
Slightly synergistic activity and highly synergistic activity have been defined as yielding synergy volumes of 50-100 μM^2% and >100 μM^2%, respectively.

A further series deals with CEM-SS cells. Kind of series: Cellular cytotoxicity by MTS staining in the combination assay. Particulars: combinations with other anti-HIV agents; Compound A 4 nM high-test concentration. It is filed as cell-based. Here is the method:
The format of the test plate was standardized as follows. Each plate contains cell control wells (cells only), virus control wells (cells plus virus), drug cytotoxicity wells (cells plus drug only), drug colorimetric control wells (drug only), as well as experimental wells (drug plus cells plus virus). The final volume in each well was 200 μl. Samples were evaluated with triplicate measurements using a checkerboard dilution scheme; […]; antiviral efficacy and cellular cytotoxicity were monitored by MTS staining at the experimental endpoint.
At assay termination, the assay plates were stained with the soluble tetrazolium-based dye MTS (CellTiter96 Reagent, Promega) to determine cell viability and quantify compound toxicity. MTS is metabolized by the mitochondrial enzymes of metabolically active cells to yield a soluble formazan product, allowing the rapid quantitative analysis of cell viability and compound cytotoxicity. […] The microtiter plates were then incubated 4-6 hrs at 37° C. for the HIV cytoprotection assay; the incubation intervals were chosen based on empirically determined times for optimal dye reduction. Adhesive plate sealers were used in place of the lids, the sealed plate was inverted several times to mix the soluble formazan product and the plate was read spectrophotometrically at 490/650 nm with a Molecular Devices Vmax plate reader.

Take `CC(C)(C)NC(=O)[C@@H]1CN(Cc2cccnc2)CCN1C[C@@H](O)C[C@@H](Cc1ccccc1)C(=O)N[C@H]1c2ccccc2C[C@H]1O` [IDV, indinavir]: in the series with HIV-1IIIB, the “Antagonism Volume, Result 1” value is −7 μM^2%; the “Synergy Volume, Result 1” value is listed as 57 μM^2%; the “Antagonism Volume, Result 2” value is on record as −23 μM^2%; the “Synergy Volume, Result 2” value amounted to 13 μM^2%. For the same compound, in the series with HIV-1IIIB, the “Antagonism Volume, Result 3” value is listed as −26 μM^2%; the “Synergy Volume, Result 3” value is recorded as 10 μM^2%; the “Mean Antagonism Volume” value is reported as −18.7 μM^2%; the “Mean Synergy Volume” value stood at 26.7 μM^2%.

For the compound `O=C1Nc2ccc(Cl)cc2[C@@](C#CC2CC2)(C(F)(F)F)O1` [EFV, efavirenz], in the series with HIV-1IIIB, the “Antagonism Volume, Result 1” value is listed as −9 μM^2%; the “Synergy Volume, Result 1” value stood at 26 μM^2%; the “Antagonism Volume, Result 2” value is 0 μM^2%; the “Synergy Volume, Result 2” value is reported as 54 μM^2%. In the series with HIV-1IIIB, the “Antagonism Volume, Result 3” value is listed as −7 μM^2%; the “Synergy Volume, Result 3” value was determined as 26 μM^2%; the “Mean Antagonism Volume” value is given as −5.3 μM^2%; the “Mean Synergy Volume” value was found to be 35.3 μM^2%.

Turning to `Cc1cn([C@H]2C[C@H](N=[N+]=[N-])[C@@H](CO)O2)c(=O)[nH]c1=O` [AZT, zidovudine], in the series with HIV-1IIIB, the “Antagonism Volume, Result 1” value is on record as −21 μM^2%; the “Synergy Volume, Result 1” value is given as 46 μM^2%; the “Antagonism Volume, Result 2” value was −44 μM^2%; the “Synergy Volume, Result 2” value was 19 μM^2%. Further, in the series with HIV-1IIIB, the “Antagonism Volume, Result 3” value is listed as −23 μM^2%; the “Synergy Volume, Result 3” value is reported as 57 μM^2%; the “Mean Antagonism Volume” value is recorded as −29.3 μM^2%; the “Mean Synergy Volume” value was determined as 40.7 μM^2%.

Turning to `COc1cc2c(cc1Cc1cccc(Cl)c1F)c(=O)c(C(=O)O)cn2[C@H](CO)C(C)C` [Compound A, (S)-6-(3-Chloro-2-fluorobenzyl)-1-(1-hydroxymethyl-2-methylpropyl)-7-methoxy-4-oxo-1,4-dihydroquinoline-3-carboxylic acid], the synergistic cytotoxicity entry in the series with CEM-SS cells is on record as “no evidence of synergistic cytotoxicity”.

On to `C[C@H](Cn1cnc2c(N)ncnc21)OCP(=O)(O)O` [PMPA, tenofovir], for which, in the series with HIV-1IIIB, the “Antagonism Volume, Result 1” value is −23 μM^2%; the “Synergy Volume, Result 1” value worked out at 29 μM^2%; the “Antagonism Volume, Result 2” value is on record as −4 μM^2%; the “Synergy Volume, Result 2” value was 43 μM^2%. Also, in the series on HIV-1IIIB, the “Antagonism Volume, Result 3” value is −60 μM^2%; the “Synergy Volume, Result 3” value was found to be 13 μM^2%; the “Mean Antagonism Volume” value was −29.0 μM^2%; the “Mean Synergy Volume” value is 28.3 μM^2%.

As to `Cc1c(O)cccc1C(=O)N[C@@H](CSc1ccccc1)[C@H](O)CN1C[C@H]2CCCC[C@H]2C[C@H]1C(=O)NC(C)(C)C` [NFV, nelfinavir], in the series with HIV-1IIIB, the “Antagonism Volume, Result 1” value is on record as −3 μM^2%; the “Synergy Volume, Result 1” value is listed as 44 μM^2%; the “Antagonism Volume, Result 2” value was −3 μM^2%; the “Synergy Volume, Result 2” value is on record as 38 μM^2%. For the same compound, in the series with HIV-1IIIB, the “Antagonism Volume, Result 3” value is −46 μM^2%; the “Synergy Volume, Result 3” value is 20 μM^2%; the “Mean Antagonism Volume” value is given as −17.3 μM^2%; the “Mean Synergy Volume” value turned out to be 34. μM^2%.
